Reference: patent US11058688B2, “Imidazopiperazine inhibitors of transcription activating proteins” (Board of Regents, The University of Texas System, priority 2018, dated 2021)

How the values were obtained:
[1] = biological target: BRD4(49-170) bromodomain (Homo sapiens (Human), UniProt O60885); assay: BRD4 AlphaScreen Assay; settings: binding to biotin-H4(1-21) Ac-K5/8/12/16 peptide
Description: (§1) Specific binding of the CBP or BRD4 bromodomain to the acetylated peptide derived from the H4 histone substrate (tetra acetylated H4(1-21) Ac-K5/8/12/16) was measured in absence or presence of inhibitors.
(§2) The standard dose response curves were fitted by Genedata Screener software using the variable-slope model: Signal=Signalnegative control+(SignalDMSO control−Signalnegative control)/(1+(IC50/Dose)^Hill slope).
(§3) Only Signal and Dose in the equation were treated as known values.

[2] = biological target: GST-CBP(1081-1197) bromodomain (Homo sapiens (Human), UniProt Q92793); assay: CBP AlphaScreen Assay; settings: binding to biotin-H4(1-21) Ac-K5/8/12/16 peptide
Chain of GST-CBP(1081-1197) bromodomain (Q92793 1081-1197): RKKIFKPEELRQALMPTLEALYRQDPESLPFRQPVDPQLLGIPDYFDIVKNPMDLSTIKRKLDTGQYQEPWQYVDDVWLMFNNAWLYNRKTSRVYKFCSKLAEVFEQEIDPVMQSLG
Description: as §1, §2, §3

Structure (SMILES)	IC50 [1]	IC50 [2]
CNC(=O)N1CCn2c(C3CCC(F)(F)CC3)nc(-c3c(F)ccc4cc(C5CCOCC5)ncc34)c2C1 [Example 90, 3-(4,4-difluorocyclohexyl)-1-(7-fluoro-3-(tetrahydro-2H-pyran-4-yl)isoquinolin-8-yl)-N-methyl-5,6-dihydroimidazo[1,5-a]pyrazine-7(8H)-carboxamide]	10200 nM	4 nM
CNC(=O)N1CCn2c(C3CCC(F)(F)CC3)nc(-c3cccc4nc(-c5cnn(C)c5)c(C(F)(F)F)cc34)c2C1 [Example 78, 3-(4,4-difluorocyclohexyl)-N-methyl-1-(2-(1-methyl-1H-pyrazol-4-yl)-3-(trifluoromethyl)quinolin-5-yl)-5,6-dihydroimidazo[1,5-a]pyrazine-7(8H)-carboxamide]	13500 nM	1 nM
CNC(=O)N1CCn2c(C3CCC(F)(F)CC3)nc(-c3c(F)ccc4cc(-c5cnc(C)s5)ncc34)c2C1 [Example 93, 3-(4,4-difluorocyclohexyl)-1-(7-fluoro-3-(2-methylthiazol-5-yl)isoquinolin-8-yl)-N-methyl-5,6-dihydroimidazo[1,5-a]pyrazine-7(8H)-carboxamide]	> 25000 nM	2 nM
CNC(=O)N1CCn2c(C3CN(C)C3)nc(-c3ccc4c(c3)c(-c3cnn(C)c3)nn4C)c2C1 [Example 8, N-Methyl-1-(1-methyl-3-(1-methyl-1H-pyrazol-4-yl)-1H-indazol-5-yl)-3-(1-methylazetidin-3-yl)-5,6-dihydroimidazo[1,5-a]pyrazine-7(8H)-carboxamide]	> 10000 nM	115 nM
CNC(=O)N1CCn2c(C3CC3)nc(-c3cccc4cc(-c5cnc(C)s5)ncc34)c2C1 [Example 23, 3-Cyclopropyl-N-methyl-1-(3-(2-methylthiazol-5-yl)isoquinolin-8-yl)-5,6-dihydroimidazo[1,5-a]pyrazine-7(8H)-carboxamide]	3850 nM	1 nM
CNC(=O)N1CCn2c(C3CCC(F)(F)CC3)nc(-c3cccc4cc(-c5ccn(C)n5)ncc34)c2C1 [Example 80, 3-(4,4-difluorocyclohexyl)-N-methyl-1-(3-(1-methyl-1H-pyrazol-3-yl)isoquinolin-8-yl)-5,6-dihydroimidazo[1,5-a]pyrazine-7(8H)-carboxamide]	11900 nM	2 nM
CNC(=O)N1CCn2c(C3CN(C(C)=O)C3)nc(-c3ccc4c(c3)c(-c3cnn(C)c3)nn4C)c2C1 [Example 9, 3-(1-Acetylazetidin-3-yl)-N-methyl-1-(1-methyl-3-(1-methyl-1H-pyrazol-4-yl)-1H-indazol-5-yl)-5,6-dihydroimidazo[1,5-a]pyrazine-7(8H)-carboxamide]	> 10000 nM	63 nM
CNC(=O)N1CCn2c(C3CC(F)(F)C3)nc(-c3cccc4nc(-c5cnn(C)c5)c(C#N)cc34)c2C1 [Example 67, 1-(3-cyano-2-(1-methyl-1H-pyrazol-4-yl)quinolin-5-yl)-3-(3,3-difluorocyclobutyl)-N-methyl-5,6-dihydroimidazo[1,5-a]pyrazine-7(8H)-carboxamide]	> 25000 nM	36 nM
CC(=O)N1CCn2c(C3CC3)nc(N3CCCc4cc(-c5ccnc(N6CCOCC6)c5)ccc43)c2C1 [Example 112, 1-(3-cyclopropyl-1-(6-(2-morpholinopyridin-4-yl)-3,4-dihydroquinolin-1(2H)-yl)-5,6-dihydroimidazo[1,5-a]pyrazin-7(8H)-yl)ethan-1-one]	21000 nM	270 nM
CNC(=O)N1CCn2c(C3CC(F)(F)C3)nc(-c3cccc4cc(-c5cnc(C)s5)ncc34)c2C1 [Example 96, 3-(3,3-difluorocyclobutyl)-N-methyl-1-(3-(2-methylthiazol-5-yl)isoquinolin-8-yl)-5,6-dihydroimidazo[1,5-a]pyrazine-7(8H)-carboxamide]	5540 nM	2 nM
CC(=O)N1CCn2c(C3CN(C(C)=O)C3)nc(-c3ccc4c(c3)c(-c3cnn(C)c3)nn4C)c2C1 [Example 12, 1-(3-(7-Acetyl-1-(1-methyl-3-(1-methyl-1H-pyrazol-4-yl)-1H-indazol-5-yl)-5,6,7,8-tetrahydroimidazo[1,5-a]pyrazin-3-yl)azetidin-1-yl)ethan-1-one]	> 10000 nM	–
CNC(=O)N1CCn2c(C3CCS(=O)(=O)CC3)nc(-c3ccc4c(c3)c(-c3cnn(C)c3)nn4C)c2C1 [Example 15, 3-(1,1-Dioxothian-4-yl)-N-methyl-1-[1-methyl-3-(1-methylpyrazol-4-yl)indazol-5-yl]-6,8-dihydro-5H-imidazo[1,5-a]pyrazine-7-carboxamide]	21900 nM	46 nM
CNC(=O)N1CCn2c(C3CCN(C)CC3)nc(-c3ccc4c(c3)c(-c3cnn(C)c3)nn4C)c2C1 [Example 56, N-methyl-1-(1-methyl-3-(1-methyl-1H-pyrazol-4-yl)-1H-indazol-5-yl)-3-(1-methylpiperidin-4-yl)-5,6-dihydroimidazo[1,5-a]pyrazine-7(8H)-carboxamide]	> 10000 nM	22 nM
CC(=O)N1CCn2c(C3CC3)nc(-c3ccc4c(cnn4C)c3)c2C1 [Example 43, 1-(3-cyclopropyl-1-(1-methyl-1H-indazol-5-yl)-5,6-dihydroimidazol[1,5-a]pyrazin-7(8H)-yl)ethan-1-one]	> 25000 nM	3190 nM
CNC(=O)N1CCn2cnc(-c3ccc4c(c3)c(-c3cnn(C)c3)nn4C)c2C1 [Example 11, N-Methyl-1-(1-methyl-3-(1-methyl-1H-pyrazol-4-yl)-1H-indazol-5-yl)-5,6-dihydroimidazo[1,5-a]pyrazine-7(8H)-carboxamide]	> 10000 nM	26 nM
CNC(=O)N1CCn2c(C3CC3)nc(-c3ccnc4nc(-c5cnn(C)c5)c(C(F)F)cc34)c2C1 [Example 36, 3-Cyclopropyl-1-(6-(difluoromethyl)-7-(1-methyl-1H-pyrazol-4-yl)-1,8-naphthyridin-4-yl)-N-methyl-5,6-dihydroimidazo[1,5-a]pyrazine-7(8H)-carboxamide]	9710 nM	38 nM
COC(=O)N1CCn2c(C3CCOC3)nc(-c3ccc4c(c3)c(-c3cnn(C)c3)nn4C)c2C1 (centres unmarked) [Example 5, Methyl 1-(1-methyl-3-(1-methyl-1H-pyrazol-4-yl)-1H-indazol-5-yl)-3-(tetrahydrofuran-3-yl)-5,6-dihydroimidazo[1,5-a]pyrazine-7(8H)-carboxylate]	13900 nM	–
CNC(=O)N1CCn2c(C3CCOCC3)nc(-c3c(F)ccc4cc(-c5ccn(C)n5)ncc34)c2C1 [Example 94, 1-(7-fluoro-3-(1-methyl-1H-pyrazol-3-yl)isoquinolin-8-yl)-N-methyl-3-(tetrahydro-2H-pyran-4-yl)-5,6-dihydroimidazo[1,5-a]pyrazine-7(8H)-carboxamide]	> 25000 nM	12 nM
CNC(=O)N1CCn2c(C3CCOCC3)nc(-c3cccc4nc(-c5cnn(C)c5)c(C(F)F)cc34)c2C1 [Example 123, 1-(3-(difluoromethyl)-2-(1-methyl-1H-pyrazol-4-yl)quinolin-5-yl)-N-methyl-3-(tetrahydro-2H-pyran-4-yl)-5,6-dihydroimidazo[1,5-a]pyrazine-7(8H)-carboxamide]	> 25000 nM	19 nM
CC(=O)N1CCn2c(C3CC3)nc(-c3ccc4c(c3)c(-c3cnn(C)c3)nn4C)c2C1 [Example 44, 1-(3-cyclopropyl-1-(1-methyl-3-(1-methyl-1H-pyrazol-4-yl)-1H-indazol-5-yl)-5,6-dihydroimidazo[1,5-a]pyrazin-7(8H)-yl)ethan-1-one]	12100 nM	47 nM
CC(=O)N1CCn2c(C3CCS(=O)(=O)CC3)nc(-c3ccc4c(c3)c(-c3cnn(C)c3)nn4C)c2C1 [Example 14, 1-[3-(1,1-Dioxothian-4-yl)-1-[1-methyl-3-(1-methylpyrazol-4-yl)indazol-5-yl]-6,8-dihydro-5H-imidazo[1,5-a]pyrazin-7-yl]ethanone]	> 25000 nM	286 nM
CNC(=O)N1CCn2c(C3CCOCC3)nc(-c3cccc4nc(-c5cnn(C)c5)c(C#N)cc34)c2C1 [Example 64, 1-(3-cyano-2-(1-methyl-1H-pyrazol-4-yl)quinolin-5-yl)-N-methyl-3-(tetrahydro-2H-pyran-4-yl)-5,6-dihydroimidazo[1,5-a]pyrazine-7(8H)-carboxamide]	22800 nM	4 nM
CC(=O)N1CCn2c(C3CC3)nc(-c3ccc4c(c3)c(-c3cnn(C)c3)nn4C)c2C1 [Example 1, 1-(3-cyclopropyl-1-(1-methyl-3-(1-methyl-1H-pyrazol-4-yl)-1H-indazol-5-yl)-5,6-dihydroimidazo[1,5-a]pyrazin-7(8H)-yl)ethan-1-one]	> 10000 nM	47 nM
CC(=O)N1CCn2c(C3CC3)nc(-c3ccnc4c3cc(-c3cnn(C)c3)n4C)c2C1 [Example 29, 1-(3-Cyclopropyl-1-(1-methyl-2-(1-methyl-1H-pyrazol-4-yl)-1H-pyrrolo[2,3-b]pyridin-4-yl)-5,6-dihydroimidazo[1,5-a]pyrazin-7(8H)-yl)ethan-1-one]	> 25000 nM	324 nM
CNC(=O)N1CCn2c(C3CC(F)(F)C3)nc(-c3cccc4cc(C5CCOCC5)ncc34)c2C1 [Example 85, 3-(3,3-difluorocyclobutyl)-N-methyl-1-(3-(tetrahydro-2H-pyran-4-yl)isoquinolin-8-yl)-5,6-dihydroimidazo[1,5-a]pyrazine-7(8H)-carboxamide]	18100 nM	15 nM
CNC(=O)N1CCn2c(C3CC3)nc(-c3cccc4cc(C5CCOCC5)ncc34)c2C1 [Example 21, 3-Cyclopropyl-N-methyl-1-(3-(tetrahydro-2H-pyran-4-yl)isoquinolin-8-yl)-5,6-dihydroimidazo[1,5-a]pyrazine-7(8H)-carboxamide]	> 25000 nM	20 nM
